The test system of assay [1] is Staphylococcus aureus ATCC 25923. Description: checkerboard synergy assay with iclaprim. Format: cell-based. As to conditions: antibiotic in combination with iclaprim; S. aureus 25923. As to the method:
(§1) The synergistic potential of iclaprim against Gram-positive and Gram-negative bacteria was determined using the checkerboard assay as described in Eliopoulos GM and Moellering, Jr. RC (1991), Antimicrobial combinations, pp. 432-492, in V. Lorian (ed.), Antibiotics in laboratory medicine, 3rd Ed., The Williams & Wilkins Co., Baltimore, the entire disclosure of which is herein incorporated by reference, allowing multiple test concentrations of iclaprim to be assayed in the presence of various concentrations of the other antibiotic in microtiter plates. The same growth media and conditions were used as described in 3.2 below.
(§2) Two different dilutions were used for iclaprim depending on the MIC determined for the bacterium. […] Iclaprim and the other antibiotic being tested were also dispensed alone in the last row and in the last column, respectively, as controls.
(§3) The Fractional Inhibitory Concentrations (FIC) for each added agent were calculated and used to determine the sum of FIC (ΣFIC) indicative of the synergistic potential of a given combination as described in Veyssier P. (1999), Inhibiteurs de la dihydrofolate reductase, nitrohétérocycles (furanes) et 8-hydroxyquinoleines, pp. 995-1027, in A. Bryskier (ed.), Antibiotiques agents antibatériens et antifongiques, 1st Ed., Ellipses Edition Marketing SA, Paris, the entire disclosure of which is herein incorporated by reference. Synergy was defined whereby the ΣFIC was <0.5, indifference (no synergy nor antagonism) whereby ΣFIC was ≥0.5 but ≤4, and antagonism whereby ΣFIC was >4. Additivity as a special form of indifference was defined whereby the ΣFIC was ≥0.5 but <1, for example as described in Stevens, D L et al. (1998), In vitro antimicrobial effects of various combinations of penicillin and clindamycin against four strains of Streptococcus pyogenes, J. Antimicrob. Chemother. 42: 1266-1268, the entire disclosure of which is herein incorporated by reference.

Assay [2] deals with Haemophilus influenzae ATCC 49766. Description: checkerboard synergy assay with iclaprim. Type of assay: cell-based. The following applies: antibiotic in combination with iclaprim; H. influenzae 49766. As to the method:
as §1, §2, §3

Assay [3] relates to Moraxella catarrhalis RA 21. Description: checkerboard synergy assay with iclaprim. Format: cell-based. As to conditions: antibiotic in combination with iclaprim; M. catarrhalis RA 21. Here is the method: as §1, §2, §3
For assay [4], the system named is Klebsiella pneumoniae ATCC 33495. Put plainly: checkerboard synergy assay with iclaprim. Type of assay: cell-based. The following applies: antibiotic in combination with iclaprim; K. pneumoniae 33495. Here is the method: as §1, §2, §3
The test system of assay [5] is Staphylococcus aureus ATCC 25923. Description: MIC determination. Type of assay: cell-based. The following applies: Staphylococcus aureus, ATCC25923; S. aureus 25923; 18 hours at 37° C.; read-out: Minimum inhibitory concentrations (MIC). Here is the method: (§4) Minimum inhibitory concentration (MIC) determination.
(§5) In order to choose the appropriate concentrations to be tested in the checkerboard experiments, minimum inhibitory concentrations (MICs) were determined first. […] Table 6) in microtiter plates. Stock solutions (10 mg/ml) of reference antibiotics were prepared in DMSO (except for tobramycin, gentamicin, lomefloxacin, tetracycline) and stored at 4° C. The bacteria were grown in Mueller-Hinton Broth (BBL Mueller-Hinton Broth II, cation adjusted). S. pneumoniae was grown in Mueller-Hinton Broth supplemented with 5% (v/v) lysed sheep blood. For the growth of H. influenzae HTM (Haemophilus test medium) was used containing Mueller-Hinton broth, yeast extract ([…], Difco) and supplemented with NAD and hematin (HTM Supplement, Oxoid SR0158E). M. catarrhalis was grown in Brain Heart Infusion medium (Oxoid). The bacteria were incubated for 18 hours at 37° C. in ambient air except for S. pneumoniae, H. influenzae and M. catarrhalis, which were incubated in the presence of 5% CO2. The MIC was determined as the lowest concentration of an individual drug that lead to no visible growth.

Assay [6] has as its system Haemophilus influenzae ATCC 49766. Put plainly: MIC determination. Format: cell-based. As to conditions: Haemophilus influenzae, ATCC49766; H. Influenza 49766; 18 hours at 37° C., 5% CO2; read-out: Minimum inhibitory concentrations (MIC). Here is the method: as §4, §5
The test system of assay [7] is Moraxella catarrhalis RA 21. Put plainly: MIC determination. As to conditions: Moraxella catarrhalis, RA21; M. catarrhalis RA 21; 18 hours at 37° C., 5% CO2; read-out: Minimum inhibitory concentrations (MIC). Format: cell-based. As to the method: as §4, §5
Assay [8] deals with Streptococcus pneumoniae ATCC 49619. Put plainly: MIC determination. Format: cell-based. As to conditions: Streptococcus pneumoniae, ATCC49619; S. pneumoniae 49619; 18 hours at 37° C., 5% CO2; read-out: Minimum inhibitory concentrations (MIC). Here is the method:
as §4, §5

Assay [9] deals with Klebsiella pneumoniae ATCC 33495. Description: MIC determination. Type of assay: cell-based. As to conditions: Klebsiella pneumoniae, ATCC33495; K. pneumonia 33495; 18 hours at 37° C.; read-out: Minimum inhibitory concentrations (MIC). Here is the method: as §4, §5
Assay [10] concerns S. aureus 101. Put plainly: MIC determination. As to conditions: Staphylococcus aureus, 101, 18 h; read-out: Minimum inhibitory concentrations (MIC). Type of assay: cell-based, Staphylococcus aureus. As to the method:
as §4, §5

The test system of assay [11] is S. pneumoniae 1/1. Description: MIC determination. Format: cell-based, Streptococcus pneumoniae. As to conditions: Streptococcus pneumoniae; S. pneumoniae 1/1; 18 hours at 37° C., 5% CO2; read-out: Minimum inhibitory concentrations (MIC). As to the method:
as §4, §5

Assay [12] concerns Streptococcus pneumoniae ATCC 49619. Description: checkerboard synergy assay with iclaprim. As to conditions: antibiotic in combination with iclaprim; S. pneumoniae 49619. Type of assay: cell-based. As to the method: as §1, §2, §3
Assay [13] deals with S. pneumoniae 1/1. Put plainly: checkerboard synergy assay with iclaprim. Type of assay: cell-based, Streptococcus pneumoniae. The following applies: antibiotic in combination with iclaprim. Here is the method: as §1, §2, §3
Assay [14] has as its system S. aureus 101. Put plainly: checkerboard synergy assay with iclaprim. The following applies: antibiotic in combination with iclaprim. Type of assay: cell-based, Staphylococcus aureus. Here is the method:
as §1, §2, §3

Positions of bridges follow the written chain, without caps; N, C: chain ends. Non-standard residues stand in square brackets, D forms with d. Residues, ends and D or L forms follow the SMILES beside them. *: point of attachment. Ileψ(thiazoline)Cys = CC[C@H](C)[C@H](N)C1=N[C@H](C(=O)*)CS1; dOrn = NCCC[C@@H](N)C(=O)O

Take `CC1(C)S[C@@H]2[C@H](NC(=O)[C@H](N)c3ccccc3)C(=O)N2[C@H]1C(=O)O` [Ampicillin]: the “Σ FIC” value is 1.00-1.00 in assay [1] and 1.13-1.50 in assay [2]. In addition, the “Con (Conclusion)” value in assay [2] is listed as “Ind (Indifference (Ind))”; in [3], “Ind (Indifference (Ind))”; in assay [4] it was “Ad (Additivity (Ad))”. Further, the MIC was 0.5 µg/mL in assay [5]; 1 µg/mL in assay [6]; 16 µg/mL in [7]; 0.5 µg/mL in assay [8]; greater than 128 µg/mL in [9]; greater than 128 µg/mL in [10]. Besides, the MIC in [11] turned out to be 16 µg/mL.

As for `CC[C@H](C)[C@H](N)C1=N[C@H](C(=O)N[C@@H](CC(C)C)C(=O)N[C@H](CCC(=O)O)C(=O)N[C@H](C(=O)N[C@H]2CCCCNC(=O)[C@H](CC(N)=O)NC(=O)[C@@H](CC(=O)O)NC(=O)[C@H](Cc3cnc[nH]3)NC(=O)[C@@H](Cc3ccccc3)NC(=O)[C@H]([C@@H](C)CC)NC(=O)[C@@H](CCCN)NC2=O)[C@@H](C)CC)CS1` [Bacitracin] ({Ileψ(thiazoline)Cys}-L[dE]IK[dOrn]I[dF]H[dD]N; lactam 4-C), the “Σ FIC” value is on record as 0.74-1.13 in assay [1]; 1.01-1.50 in assay [2]; 0.56-1.25 in assay [3]; 0.75-1.13 in [12]; 1.01-1.50 in assay [4]; 0.51-1.06 in [13]. Further, the “Σ FIC” value in assay [14] is on record as 0.75-1.13. Also, the “Con (Conclusion)” value is given as “Ind (Indifference (Ind))” in assay [2], “Ad (Additivity (Ad))” in [3] and “Ind (Indifference (Ind))” in assay [4]. For the same molecule, the MIC in assay [5] was greater than 128 µg/mL; in [6], greater than 128 µg/mL; in [7], 8 µg/mL; in assay [8], 32 µg/mL; in [9] it was greater than 128 µg/mL; in assay [10], 32 µg/mL. Besides, the MIC in [11] stood at 8 µg/mL.

In the case of `CO/N=C(\C(=O)N[C@@H]1C(=O)N2C(C(=O)O)=C(COC(C)=O)CS[C@H]12)c1csc(N)n1` [Cefotaxime], the “Σ FIC” value in assay [1] is given as 1.03-1.50; in assay [3], 0.56-1.03; in assay [4], 1.13-1.50; in [13] it was 0.63-1.06; in assay [14], 1.06-1.50. The “Con (Conclusion)” value is “Ad (Additivity (Ad))” in assay [2], “Ad (Additivity (Ad))” in assay [3] and “Ind (Indifference (Ind))” in [4]. The MIC was found to be 4 µg/mL in assay [5]; 0.063 µg/mL in assay [6]; 4 µg/mL in assay [7]; 0.25 µg/mL in [8]; 0.5 µg/mL in [9]; 32 µg/mL in assay [10]. Further, the MIC in assay [11] worked out at 8 µg/mL.

For `NC(=O)c1cc[n+](CC2=C(C(=O)O)N3C(=O)[C@@H](NC(=O)[C@@H](c4ccccc4)S(=O)(=O)[O-])[C@H]3SC2)cc1` [Cefsulodine, Cefsulodin], the “Σ FIC” value in assay [1] was 1.00-1.25; in [2] it was 1.01-1.50; in assay [3], 1.00-1.25; in assay [12], 1.13-1.50; in assay [4], 1.01-1.50; in assay [13], 1.01-1.50. Moreover, in [14], the “Σ FIC” value is reported as 1.00-1.25. In addition, the “Con (Conclusion)” value in assay [2], in assay [3] and in assay [4] was “Ind (Indifference (Ind))” in each case. Also, the MIC was 64 µg/mL in [5]; greater than 128 µg/mL in assay [6]; greater than 128 µg/mL in assay [7]; 16 µg/mL in [8]; greater than 128 µg/mL in assay [9]; 64 µg/mL in assay [10]. Moreover, the MIC in [11] was greater than 128 µg/mL.

Take `O=C(N[C@H](CO)[C@H](O)c1ccc([N+](=O)[O-])cc1)C(Cl)Cl` [Chloramphenicol]: the “Σ FIC” value in assay [1] was 1.13-2.50; in assay [2], 1.06-1.50; in [3], 1.25-1.50; in assay [12] it was 0.75-1.25; in assay [4], 1.01-1.50; in assay [14] it was 0.63-1.13. For the same molecule, the “Con (Conclusion)” value in assay [2], in [3] and in assay [4] was “Ind (Indifference (Ind))” each time. Also, the MIC in assay [5] is 8 µg/mL; in assay [6], 0.5 µg/mL; in assay [7], 0.5 µg/mL; in assay [8] it was 4 µg/mL; in [9], greater than 128 µg/mL; in assay [10], 64 µg/mL. For the same molecule, the MIC in assay [11] was determined as 16 µg/mL.

For the molecule `CCC[C@@H]1C[C@@H](C(=O)N[C@@H]([C@H]2O[C@H](SC)[C@H](O)[C@@H](O)[C@H]2O)[C@H](C)Cl)N(C)C1` [Clindamycin], the “Σ FIC” value was 2.02-2.48 in assay [1]; 1.13-1.50 in assay [2]; 1.00-1.25 in assay [3]; 1.00-1.25 in assay [12]; 1.01-1.50 in assay [4]; 0.63-1.06 in [13]. Further, in assay [14], the “Σ FIC” value is reported as 2.03-2.50. Also, the “Con (Conclusion)” value in assay [2], in assay [3] and in assay [4] was “Ind (Indifference (Ind))” throughout. Also, the MIC in assay [5] was 0.25 µg/mL; in assay [6], 8 µg/mL; in assay [7] it was 4 µg/mL; in assay [8], 0.125 µg/mL; in [9] it was greater than 128 µg/mL; in assay [10], 0.25 µg/mL. Moreover, the MIC in [11] was found to be 0.125 µg/mL.

Regarding `CO[C@H]1/C=C/O[C@@]2(C)Oc3c(C)c(O)c4c(O)c(c(/C=N/N5CCN(C)CC5)c(O)c4c3C2=O)NC(=O)/C(C)=C\C=C\[C@H](C)[C@H](O)[C@@H](C)[C@@H](O)[C@@H](C)[C@H](OC(C)=O)[C@@H]1C` [Rifampicin], the “Con (Conclusion)” value in assay [2] is on record as “Ind (Indifference (Ind))”; in assay [3] it was “Ad (Additivity (Ad))”; in assay [4] it was “Ind (Indifference (Ind))”. Further, the “Σ FIC” value in [2] is reported as 1.12-1.50; in [3], 0.75-1.12; in assay [12], 0.75-0.76; in assay [4], 1.01-1.50; in assay [13] it was 0.56-1.12. The MIC in [5] was 0.031 µg/mL; in assay [6], 0.063 µg/mL; in assay [7] it was 0.063 µg/mL; in [8] it was 0.031 µg/mL; in assay [9], greater than 128 µg/mL; in assay [10] it was 0.031 µg/mL. In [11], the MIC was 0.063 µg/mL.

(Values after US20200038399A1, “FORMULATIONS, METHODS, KIT, AND DOSAGE FORMS FOR TREATING BACTERIAL INFECTION” (Motif BioSciences Inc., priority 2016, published 2020).)
